Counter-ions that a name gives are not always drawn.
target: T1, human histamine H4 receptor (Homo sapiens, UniProt Q9H3N8); assay: Binding Assay on Recombinant Human Histamine H4 Receptor; conditions: competition binding with 3H-histamine, membranes of SK-N-MC or COS7 cells transfected with human H4R; average of results obtained
T1 construct: expressed in transfected cells; host or cells: SK-N-MC cells or COS7 cells, transiently transfected with pH4R; membrane preparation
Description: Biological Methods: Binding Assay on Recombinant Human Histamine H4 Receptor.
SK-N-MC cells or COS7 cells were transiently transfected with pH4R and grown in 150 cm^2 tissue culture dishes. Cells were washed with saline solution, scraped with a cell scraper and collected by centrifugation (1000 rpm, 5 min). Cell membranes were prepared by homogenization of the cell pellet in 20 mM Tris-HCl with a polytron tissue homogenizer for 10 sec at high speed. Homogenate was centrifuged at 1000 rpm for 5 min at 4° C. The supernatant was then collected and centrifuged at 20,000×g for 25 min at 4° C. The final pellet was resuspended in 50 mM Tris-HCl. Cell membranes were incubated with ^3H-histamine (5-70 nM) in the presence or absence of excess histamine (10,000 nM). Incubation occurred at room temperature for 45 min. Membranes were harvested by rapid filtration over Whatman GF/C filters and washed 4 times with ice-cold 50 mM Tris HCl. Filters were then dried, mixed with scintillant and counted for radioactivity. SK-N-MC or COS7 cells expressing human histamine H4 receptor were used to measure the affinity of binding of other compounds and their ability to displace ^3H-ligand binding by incubating the above-described reaction in the presence of various concentrations of inhibitor or compound to be tested. For competition binding studies using ^3H-histamine, K values were calculated, based on an experimentally determined KD value of 5 nM and a ligand concentration of 5 nM, according to Y.-C.

| Ki [µM] | SMILES |
| --- | --- |
| 0.062 | CN(C)[C@@H]1CCN(c2nc(N)nc3c4c(sc23)CCCC4)C1 [Example 39, 4-[(3R)-3-(Dimethyl-amino)pyrrolidin-1-yl]-6,7,8,9-tetrahydro[1]benzo-thieno[3,2-d]pyrimidin-2-amine trifluoroacetic acid salt] |
| 1.01 | NC[C@H]1CCN(c2nc(N)nc3c4c(sc23)CCCC4)C1 [Example 41, 4-[(3R)-3-(Amino-methyl)pyrrolidin-1-yl]-6,7,8,9-tetrahydro[1]benzo-thieno[3,2-d]pyrimidin-2-amine trifluoroacetic acid salt] |
| 0.467 | Nc1nc(N2CC(N)C2)c2sc3c(c2n1)CCCC3 [Example 42, 4-(3-Aminoazetidin-1-yl)-6,7,8,9-tetrahydro[1]benzo-thieno[3,2-d]pyrimidin-2-amine trifluoroacetic acid salt] |
| 0.007 | CC1CCc2sc3c(N4CCN(C)CC4)nc(N)nc3c2C1 (stereo not shown) [Example 43, 8-Methyl-4-(4-methyl-piperazin-1-yl)-6,7,8,9-tetrahydro[1]benzo-thieno[3,2-d]pyrimidin-2-amine trifluoroacetic acid salt] |
| 0.011 | CN[C@H]1CCN(c2nc(N)nc3c4c(sc23)CCC(C)C4)C1 (stereo partly drawn) [Example 44, 8-Methyl-4-[(3R)-3-(methyl-amino)pyrrolidin-1-yl]-6,7,8,9-tetrahydro[1]benzo-thieno[3,2-d]pyrimidin-2-amine trifluoroacetic acid salt] |
| 0.647 | CC(C)N1CCN(c2nc(N)nc3c4c(sc23)CCCC4)CC1 [Example 50, 4-[4-(1-Methylethyl)piper-azin-1-yl]-6,7,8,9-tetrahy-dro[1]benzothieno[3,2-d]pyrimidin-2-amine trifluoroacetic acid salt] |
| 0.205 | CCN1CCN(c2nc(N)nc3c4c(sc23)CCCC4)CC1 [Example 51, 4-(4-Ethylpiperazin-1-yl)-6,7,8,9-tetrahydro[1]benzo-thieno[3,2-d]pyrimidin-2-amine trifluoroacetic acid salt] |
| 1.61 | Nc1nc(N2CCn3cnnc3C2)c2sc3c(c2n1)CCCC3 [Example 54, 4-(5,6-Dihydro[1,2,4-a]pyrazin-7(8H)-yl)-6,7,8,9-tetrahydro[1]benzothieno[3,2-d]pyrimidin-2-amine trifluoroacetic acid salt] |
| 0.033 | CN[C@H]1CCN(c2nc(N)nc3c4c(sc23)CCCC4)C1 [Example 55, 4-[(3S)-3-(Methyl-amino)pyrrolidin-1-yl]-6,7,8,9-tetrahydro[1]benzo-thieno[3,2-d]pyrimidin-2-amine trifluoroacetic acid salt] |
| 0.023 | CN1CCN(c2nc(N)nc3c4c(sc23)CCC(F)(F)C4)CC1 [Example 57, 8,8-Difluoro-4-(4-methyl-piperazin-1-yl)-6,7,8,9-tetrahydro[1]benzothieno[3,2-d]pyrimidin-2-amine trifluoroacetic acid salt] |
| 0.014 | Nc1nc(N2CCNCC2)c2sc3c(c2n1)CC(F)(F)CC3 [Example 58, 8,8-Difluoro-4-piperazin-1-yl-6,7,8,9-tetrahydro[1]ben-zothieno[3,2-d]pyrimidin-2-amine trifluoroacetic acid salt] |
| 0.009 | CN[C@@H]1CCN(c2nc(N)nc3c4c(sc23)CCC(F)(F)C4)C1 [Example 59, 8,8-Difluoro-4-[(3R)-3-(methylamino)pyrrolidin-1-yl]-6,7,8,9-tetrahydro[1]benzothieno[3,2-d]pyrimidin-2-amine trifluoroacetic acid salt] |
| 0.006 | CN[C@H]1CCN(c2nc(N)nc3c4c(sc23)CCC(F)(F)C4)C1 [Example 112, 8,8-Difluoro-4-[(3S)-3-(methylamino)pyrrolidin-1-yl]-6,7,8,9-tetrahydro[1]benzothieno[3,2-d]pyrimidin-2-amine trifluoroacetate] |
| 0.0011 | Nc1nc(N2CC[C@@H](N)C2)c2sc3c(c2n1)CC(F)(F)CC3 [Example 113, 4-[(3R)-3-Aminopyrrolidin-1-yl]-8,8-difluoro-6,7,8,9-tetrahydro[1]benzothieno[3,2-d]pyrimidin-2-amine hydrochloride] |
| 0.0021 | Nc1nc(N2CCCNCC2)c2sc3c(c2n1)CC(F)(F)CC3 [Example 114, 4-(1,4-Diazepan-1-yl)-8,8-difluoro-6,7,8,9-tetrahydro[1]benzothieno[3,2-d]pyrimidin-2-amine trifluoroacetate] |
| 0.021 | CN(CCN)c1nc(N)nc2c3c(sc12)CCC(F)(F)C3 [Example 115, N^4-(2-Aminoethyl)-8,8-difluoro-N^4-methyl-6,7,8,9-tetrahydro[1]benzothieno[3,2-d]pyrimidine-2,4-diamine trifluoroacetate] |
| 0.00048 | CN[C@@H]1CCN(c2nc(N)nc3c4c(oc23)CCC(F)(F)C4)C1 [Example 116, 8,8-Difluoro-4-[(3R)-3-(methylamino)pyrrolidin-1-yl]-6,7,8,9-tetrahydro[1]benzofuro[3,2-d]pyrimidin-2-amine hydrochloride] |
| 0.0068 | Nc1nc(N2CC[C@@H](N)C2)c2oc3c(c2n1)CC(F)(F)CC3 [Example 117, 4-[(3R)-3-Aminopyrrolidin-1-yl]-8,8-difluoro-6,7,8,9-tetrahydro[1]benzofuro[3,2-d]pyrimidin-2-amine hydrochloride] |
| 0.029 | Nc1nc(N2CCNCC2)c2oc3c(c2n1)CC(F)(F)CC3 [Example 118, 8,8-Difluoro-4-piperazin-1-yl-6,7,8,9-tetrahydro[1]benzofuro[3,2-d]pyrimidin-2-amine hydrochloride] |
| 0.021 | Nc1nc(N2CC[C@H](N)C2)c2sc3c(c2n1)CC(F)(F)CC3 [Example 119, 4-[(3S)-3-Aminopyrrolidin-1-yl]-8,8-difluoro-6,7,8,9-tetrahydro[1]benzothieno[3,2-d]pyrimidin-2-amine hydrochloride] |
| 0.17 | Nc1nc(N2CC(N)C2)c2sc3c(c2n1)CC(F)(F)CC3 [Example 120, 4-(3-Aminoazetidin-1-yl)-8,8-difluoro-6,7,8,9-tetrahydro[1]benzothieno[3,2-d]pyrimidin-2-amine (free amine)] |
| 0.15 | CN1C[C@@H]2CN(c3nc(N)nc4c5c(sc34)CCC(F)(F)C5)C[C@@H]2C1 [Example 121, 8,8-Difluoro-4-[(3aR,6aS)-5-methylhexahydropyrrolo[3,4-c]pyrrol-2(1H)-yl]-6,7,8,9-tetrahydro[1]benzothieno[3,2-d]pyrimidin-2-amine (free amine)] |
| 0.007 | CN[C@H]1CCN(c2nc(N)nc3c4c(oc23)CCC(F)(F)C4)C1 [Example 122, 8,8-Difluoro-4-[(3S)-3-(methylamino)pyrrolidin-1-yl]-6,7,8,9-tetrahydro[1]benzofuro[3,2-d]pyrimidin-2-amine trifluoroacetate] |
| 0.015 | CN1CCN(c2nc(N)nc3c4c(oc23)CCC(F)(F)C4)CC1 [Example 123, 8,8-Difluoro-4-(4-methylpiperazin-1-yl)-6,7,8,9-tetrahydro[1]benzofuro[3,2-d]pyrimidin-2-amine trifluoroacetate] |
| 0.033 | Nc1nc(N2C[C@H]3CCCN[C@H]3C2)c2oc3c(c2n1)CC(F)(F)CC3 [Example 124, 4-((R,R)-octahydropyrrolo[3,4-b]pyridin-6-yl)-8,8-difluoro-6,7,8,9-tetrahydro[1]benzofuro[3,2-d]pyrimidin-2-amine trifluoroacetate] |

| SMILES | Ki [µM] |
| --- | --- |
| CC1CCc2sc3c(N4C[C@H]5CCCN[C@H]5C4)nc(N)nc3c2C1 (stereo partly drawn) [Example 45, 8-Methyl-4-[(4aR,7aR)-octa-hydro-6H-pyrrolo-[3,4-b]pyridin-6-yl]-6,7,8,9-tetra-hydro[1]benzothieno[3,2-d]pyrimidin-2-amine trifluoroacetic acid salt] | 0.004 |
| CN1CCN(c2nc(N)nc3c4c(sc23)CCCCC4)CC1 [Example 46, 4-(4-Methylpiperazin-1-yl)-7,8,9,10-tetrahydro-6H-cyclohepta[4,5]thieno[3,2-d]pyrimidin-2-amine tri-fluoroacetic acid salt] | 0.021 |
| Nc1nc(N2C[C@H]3CCCN[C@H]3C2)c2sc3c(c2n1)CCCCC3 [Example 48, 4-[(4aR,7aR)-Octahydro-6H-pyrrolo[3,4-b]pyridin-6-yl]-7,8,9,10-tetrahydro-6H-cyclohepta[4,5-d]pyrimidin-2-amine trifluoroacetic acid salt] | 0.003 |
| NCCN1CCN(c2nc(N)nc3c4c(sc23)CCCC4)CC1 [Example 49, 4-[4-(2-Aminoethyl)piper-azin-1-yl]-6,7,8,9-tetrahy-dro[1]benzothieno[3,2-d]pyrimidin-2-amine tri-fluoroacetic acid salt] | 2.26 |
| Nc1nc(N2CCN3CCCC3C2)c2sc3c(c2n1)CCCC3 (stereo not shown) [Example 52, 4-(Hexahydropyrrolo[1,2-a]pyrazin-2(1H)-yl-6,7,8,9-tetrahydro[1]benzothieno[3,2-d]pyrimidin-2-aminetrifluoroacetic acid salt] | 0.067 |
| Nc1nc(N2CCN3CCCCC3C2)c2sc3c(c2n1)CCCC3 (stereo not shown) [Example 53, 4-(Octahydro-2H-pyrido[1,2-a]pyrazin-2-yl)-6,7,8,9-tetrahydro[1]benzothieno-3,2-d]pyrimidin-2-amine trifluoroacetic acid salt] | 0.387 |

— patent publication US8440654B2, “Thieno- and furo-pyrimidine modulators of the histamine H4 receptor” (Janssen Pharmaceutica NV, priority 2007, dated 2013)
